Like-named read-outs stand apart in the source and are kept apart here.
Key:
[1] = test system: lymphocytes in peritoneal lavage fluid; assay: Lymphocyte cell counts in peritoneal lavage fluid by FACS; type: in vivo, mouse; conditions: vs untreated SOD1
Protocol: FIG. 4 is a graph showing cell counts in peritoneal lavage fluid. SOD1 animals received a loading dose of 2.5 mg/kg fingolimod orally, then oral 1.8 mg/kg once weekly for 3 weeks. Lymphocyte counts were measured via FACS for various cell surface antigens in the peritoneal lavage fluid.
SOD1 mice received a loading dose of 2.5 mg/kg fingolimod orally, then oral 1.8 mg/kg once weekly for 3 weeks. After sacrifice, several measurements were performed. To determine the lymphocyte cell count in peritoneal lavage fluid, peritoneal lavage fluid was removed after sacrifice of the animals and the peritoneal lavage fluid was subjected to fluorescent activated cell sorting for each of the cell surface antigens: CD11b, CD28, CD3, CD4, CD86, […], and LY6G. Lymphocyte cell count from SOD1 fingolimod treated mice was compared to untreated SOD1 mice in FIG. 4.

[2] = cited from earlier work
G93A-SOD1 mice = assay: Disease progression, onset and survival in the SOD1 ALS mouse model; type: in vivo; conditions: vs untreated SOD1
From the text: FIGS. 7A, 7B, 7C, and 7D are charts showing symptomatic neurological disease progression in untreated SOD1 mice and SOD1 fingolimod treated mice. FIGS. 7A and 7C show the results for SOD1 mice having a low number (14-20) of copies of the transgene. FIGS. 7B and 7D show the results for SOD1 mice having a high number (20-25) copies of the transgene. Neurological disease progression was defined as the average neurological score over time for male SOD1 mice. For each chart, the lower line represents the SOD1 fingolimod treated mice; the upper line (i.e., having lower probability at each age in days, Dage) represents the untreated SOD1 mice.
FIG. 8A is a chart comparing disease onset probability as assessed by the Cox Proportional Hazards model in untreated SOD1 and SOD1 fingolimod treated mice. The black right line represents the SOD1 fingolimod treated mice; the gray left line represents the untreated SOD1 mice.
FIG. 8B is a chart comparing survival as assessed by the Cox Proportional Hazards model in untreated SOD1 mice and SOD1 fingolimod treated mice for individual animals. The black right line represents the SOD1 fingolimod treated mice; the gray left line represents the untreated SOD1 mice.
FIG. 9A is a chart showing disease onset probability as calculated by the Weibull method versus time in untreated SOD1 mice and SOD1 fingolimod treated mice. The right line represents the SOD1 fingolimod treated mice; the left line represents the untreated SOD1 mice.
FIG. 9B is a chart showing survival as calculated by the Weibull method versus time in untreated SOD1 mice and SOD1 fingolimod treated mice. The right line represents the SOD1 fingolimod treated mice; the left line represents the untreated SOD1 mice.
To assess the impact of reducing T lymphocyte cell proliferation on disease progression in the SOD1 preclinical animal model, fingolimod was administered to SOD1 mice and parameters of disease progression were measured, including daily measurements of neurological severity score, as well as T lymphocyte cell proliferation.
Neurological scores for both hind legs were assessed daily for each mouse from 50 days of age. The neurological score employed a scale of 0 to 4 that was developed by observation at ALSTDI (Scott et al., 2008). […] Animals were assigned a score of 2 when the toes curled under at least twice during walking a distance of 12 inches, or any part of the foot was dragging along the cage bottom/table. Animals were assigned a score of 3 when they had rigid paralysis or minimal joint movement, or a foot was not being used for forward motion. Animals were assigned a score of 4 when they […] within 30 seconds after being laid on either side. At the point where at least one hind leg was scored as 2, food pellets were left on the cage bedding to permit easy access to food. If both hind legs were scored as 2, Nutra-Gel® (Bio-Serve #S4798) was provided as food in addition to food pellets placed on the cage bedding and a long sipper tube was placed on the water bottle.
Date and cause of death were recorded for each mouse. For humane reasons, animals were closely monitored and sacrificed as moribund prior to actual death using criteria for severe moribundity. To determine duration of survival reliably and humanely, the moribund state, defined as the inability of mice to right themselves 30 seconds after being placed on a side (a neurological score of 4) was used. The moribund mice were scored as “dead,” and were euthanized using carbon dioxide asphyxiation.
To determine the impact of reducing T lymphocyte cell proliferation on disease progression in the SOD1 preclinical animal model, a Weibull analysis was performed on the data from the animal study described in Examples 3-5.

[3] = Pharmacokinetic profile of fingolimod in plasma and spinal cord of SOD1 mice; type: in vivo; conditions: G93A-SOD1 transgenic, mouse, male SOD1 mice, single IP bolus 6.7 mg/kg
Protocol: FIG. 1A is a chart showing the plasma pharmacokinetic profile for fingolimod in male SOD1 mice after a single IP bolus 6.7 mg/kg.
FIG. 1B is a chart showing the spinal cord pharmacokinetic profile for fingolimod in male SOD1 mice after a single IP bolus 6.7 mg/kg.
The pharmacokinetic study provided reagent distribution and elimination parameters in order to guide future in vivo studies. […] Because of the longer than usual half-life of fingolimod, the time points for PK harvest extended beyond the typical 9 point small molecule PK study executed at ALS Therapy Development Institute (ALSTDI, Cambridge, Mass.). Time points included 0, 0.083 hours, 0.25 hours, 0.5 hours, 0.75 hours, 1 hour, 2 hours, 4 hours, 6 hours, 8 hours, 12 hours, 24 hours, 48 hours, 72 hours, and 96 hours.
G93A-SOD1 transgenic mice (shortened to “SOD1 mice”) are mutant for superoxide dismutase 1 (SOD1) and are used as a disease model because of the phenotypic and pathologic resemblance to sporadic and familial human ALS. The SOD1 mice overexpress the superoxide dismutase, CCS, to develop an accelerated disease course that is associated with enhanced mitochondrial pathology and increased mitochondrial localization of mutant SOD1. The results of the fingolimod concentration studies were consistent with published reports for fingolimod in other tissues and models. Tissues analyzed included plasma (FIG. 1A) and spinal cord (FIG. 1B). Fingolimod treated animals were then divided into two groups using two separate doping regimens: • Low Dose Fingolimod Group: IP Load 0.44 mg/kg, Maintenance 0.32 mg/kg every 7 days (q7d), and • High Dose Fingolimod Group: IP Load 2.5 mg/kg, Maintenance 1.8 mg/kg q7d.

## CCCCCCCCc1ccc(CCC(N)(CO)CO)cc1 [fingolimod, 2-amino-2-(4-octylphenethyl)propane-1,3-diol]
[1]; load 2.5 mg/kg oral then 1.8 mg/kg once weekly for 3 weeks
  lymphocyte count, CD11b: decreased lymphocyte count
[1]; same regimen
  lymphocyte count, CD4: decreased lymphocyte count
  lymphocyte count, CD28: decreased lymphocyte count
  lymphocyte count, CD86: decreased lymphocyte count
  lymphocyte count, CTLA34: decreased lymphocyte count
  lymphocyte count, LY6G: decreased lymphocyte count
[2]; Foster et al. 2007
  CNS penetration and localization: CNS penetrant and localizes in the CNS white matter
[2]; Meno-Tetang 2006
  brain/plasma ratio (in words): high
  plasma half-life (in words): relatively long
G93A-SOD1 mice; SOD1 mice
  disease onset probability (Weibull method): reduced disease onset probability
  survival probability (Weibull method): increased survival probability
G93A-SOD1 mice; male SOD1 mice, high copy number (20-25 copies)
  neurological score over time: improvement
G93A-SOD1 mice; male SOD1 mice, low copy number (14-20 copies)
  neurological score over time: improvement
G93A-SOD1 mice; male SOD1 mice
  disease onset probability (Cox Proportional Hazards model): delayed onset of disease
  survival (Cox Proportional Hazards model): extended survival
[3]; plasma, read-out: plasma Cmax
  Cmax: 185 ng/mL
[3]; plasma, read-out: plasma half-life (converted)
  half-life: 31.4 h
[3]; spinal cord, read-out: spinal cord Cmax
  Cmax: 630 ng/mL
[3]; spinal cord, read-out: spinal cord half-life (converted)
  half-life: 89.2 h

Source: US8946301B2, “Targeting of T-lymphocytes to treat amyotrophic lateral sclerosis” (ALS Therapy Development Institute, priority 2011, dated 2015)
